The source of these data is publication PMC7932537, “Quantitative profiling of protease specificity” (PLoS Computational Biology, 2021).

In assay [1] the test system is MMP-2. Nature of the assay: Substrate phage display with NGS: relative probability (RP) of P3-P1' tetramer clusters. The assay is classed as biochemical, human. Conditions: for relative probability (RP): RP of the P3-P1' tetramer cluster contained in the hexamer, 200 nM MMP-2, 2 h, 37°C, two rounds of selection; for relative probability (RP) of matching tetramer: P3-P1' tetramer matching the MS detected MMP2 cleavage sequence, RP_above_4.5.

Assay [2] has as its system MMP-9. The assay is described as above. The class given is biochemical, human.
[3] abbreviates: MMP9, RP of the P3-P1' tetramer contained in the hexamer substrate (substrate phage display, NGS).
The mark [4] stands for this setting: MMP2, RP of matching P3-P1' tetramer, common set of MMP2-9 selectome, RP above KL threshold.
Setting [5] is: RP of matching tetramer, common MMP2-9 selectome.
Where [6] appears, read: MMP9, RP of matching P3-P1' tetramer, common set of MMP2-9 selectome.
The mark [7] stands for this setting: MMP9, RP of the P3-P1' tetramer matching the MS detected cleavage, RP above 4.7, substrate phage display with NGS.
Setting [8] is: RP of matching tetramer, common MMP2-9 selectome, RP above KL threshold.
Setting [9] is: RP of the P3-P1' tetramer, MMP2 substrate phage display/NGS, tetramers of physiologic MEROPS substrates common to MMP2 and MMP9.
[10] abbreviates: RP of the P3-P1' tetramer, MMP9 substrate phage display/NGS, tetramers of physiologic MEROPS substrates common to MMP2 and MMP9.

In the case of PAGVKA, the “relative probability (RP)” value in assay [1] is given as 28.6381; in assay [2] (setting [3]), 31.0803.

In the case of PRPFHH, the “relative probability (RP)” value is 32.5323 in assay [1] and 43.6397 in assay [2] (setting [3]).

Turning to PGMI, the “relative probability (RP) (acc.to MMP2)” value in assay [1] (setting [4]) and in assay [1] (setting [5]) was 17.65 throughout. The “relative probability (RP) of matching tetramer” value in assay [1] is listed as 17.65. The “relative probability (RP) (acc.to MMP9)” value in assay [2] (setting [6]) and in assay [2] (setting [8]) was 13.36 in each case. Further, the “relative probability (RP)” value in assay [2] (setting [7]) turned out to be 13.36.

Regarding AKAQ, the “corresponding MMP2 relative probability (RP)” value in assay [1] (MMP9 tetramers from unique substrates, RP of same tetramer for MMP2) turned out to be 5.884. In addition, the “MMP9 relative probability (RP)” value in assay [2] (MMP9 tetramers from unique substrates, unrounded values) is given as 0.8414.

In the case of EPVSLA, the entries for the “relative probability (RP)” value in assay [1] and in assay [2] (setting [3]) were 32.502 and 42.3557, respectively.

Take PKGYQG: the “relative probability (RP)” value in assay [1] is 30.7046; in assay [2] (setting [3]) it was 46.8538.

As to PRHS, the “relative probability (RP) (acc.to MMP2)” value in assay [1] (setting [4]) and in assay [1] (setting [5]) was 13.22 in each case. In addition, the “relative probability (RP) of matching tetramer” value in assay [1] turned out to be 13.22. The “relative probability (RP) (acc.to MMP9)” value in assay [2] (setting [6]) and in assay [2] (setting [8]) was 18.44 each time. Besides, the “relative probability (RP)” value in assay [2] (setting [7]) stood at 18.44.

Turning to IGNM, the “relative probability (RP) (acc.to MMP2)” value in assay [1] (setting [4]) came out at 29.21. In addition, the “relative probability (RP) of matching tetramer” value in assay [1] is 29.21. In assay [2] (setting [6]), the “relative probability (RP) (acc.to MMP9)” value was 9.58.

Consider WPSPFR, for which the “relative probability (RP)” value in assay [1] turned out to be 30.9274; in assay [2] (setting [3]) it was 37.3217.

As for PYGIKG, the “relative probability (RP)” value is reported as 28.2788 in assay [1] and 49.5245 in assay [2] (setting [3]).

On to PQPSEL, for which the results for the “relative probability (RP)” value in assay [1] and in assay [2] (setting [3]) were 31.5156 and 41.3266, respectively.

Take SLPQ: the “relative probability (RP) (acc.to MMP2)” value in assay [1] (setting [9]) is listed as 0.51. Moreover, the “relative probability (RP) (acc.to MMP9)” value in assay [2] (setting [10]) stood at 0.1.

For GPKG, the “relative probability (RP) (acc.to MMP2)” value in assay [1] (setting [9]) is reported as 1.49. Moreover, the “relative probability (RP) (acc.to MMP9)” value in assay [2] (setting [10]) is 2.81.

With ATPY, the “relative probability (RP) (acc.to MMP2)” value in assay [1] (setting [4]) and in assay [1] (setting [5]) was 12.49 throughout. In addition, in assay [1], the “relative probability (RP) of matching tetramer” value is recorded as 12.49. Also, the “relative probability (RP) (acc.to MMP9)” value in assay [2] (setting [6]) and in assay [2] (setting [8]) was 9.04 throughout. For the same substance, the “relative probability (RP)” value in assay [2] (setting [7]) came out at 9.04.

PYSI: the “relative probability (RP) (acc.to MMP2)” value in assay [1] (setting [4]) came to 23.85. For the same substance, in assay [1], the “relative probability (RP) of matching tetramer” value is on record as 23.85. Besides, the “relative probability (RP) (acc.to MMP9)” value in assay [2] (setting [6]) is on record as 45.53.

On to PRPQAA, for which the “relative probability (RP)” value in assay [1] is given as 27.2115; in assay [2] (setting [3]), 37.3898.

Take PRHR: the “relative probability (RP) (acc.to MMP2)” value in assay [1] (setting [9]) amounted to 0.04. In addition, the “relative probability (RP) (acc.to MMP9)” value in assay [2] (setting [10]) is 0.35.

On to AKAL, for which the “relative probability (RP) (acc.to MMP2)” value in assay [1] (setting [4]) and in assay [1] (setting [5]) was 22.96 throughout. Besides, the “relative probability (RP) of matching tetramer” value in assay [1] was 22.96. Besides, the “relative probability (RP) (acc.to MMP9)” value in assay [2] (setting [6]) and in assay [2] (setting [8]) was 37.29 each time. Also, the “relative probability (RP)” value in assay [2] (setting [7]) is reported as 37.29.

On to PKGQ, for which, in assay [1] (setting [9]), the “relative probability (RP) (acc.to MMP2)” value is reported as 21.45. Further, the “relative probability (RP) (acc.to MMP9)” value in assay [2] (setting [10]) is given as 35.93.

For the substance PPGK, the “relative probability (RP) (acc.to MMP2)” value in assay [1] (setting [9]) came out at 0.14. The “relative probability (RP) (acc.to MMP9)” value in assay [2] (setting [10]) turned out to be 0.

Turning to PKALPY, the “relative probability (RP)” value in assay [1] came to 34.4858; in assay [2] (setting [3]), 48.3581.

As to PENF, the “relative probability (RP) (acc.to MMP2)” value in assay [1] (setting [9]) worked out at 16. For the same substance, the “relative probability (RP) (acc.to MMP9)” value in assay [2] (setting [10]) was determined as 20.05. Besides, in assay [2] (tetramer annotation of MMP-9 cleavage sites in physiologic substrates from MEROPS), the “relative probability (RP)” value is 20.05.

Regarding PGEI, the “relative probability (RP) (acc.to MMP2)” value in assay [1] (setting [4]) and in assay [1] (setting [5]) was 14.72 throughout. Moreover, the “relative probability (RP) of matching tetramer” value in assay [1] is 14.72. Besides, the “relative probability (RP) (acc.to MMP9)” value in assay [2] (setting [6]) and in assay [2] (setting [8]) was 12.83 in each case. Moreover, the “relative probability (RP)” value in assay [2] (setting [7]) stood at 12.83.

Take PSGK: the “relative probability (RP) (acc.to MMP2)” value in assay [1] (setting [9]) is on record as 2.08. Besides, in assay [2] (setting [10]), the “relative probability (RP) (acc.to MMP9)” value stood at 1.08.

Regarding PYGL, the avg_RP in assay [1] (MMP2 - no binning, average relative probability of the tetramer, redundant tetramers averaged out) stood at 32.9966. Further, the “relative probability (RP) (acc.to MMP2)” value in assay [1] (setting [9]) is listed as 33. Moreover, in assay [2] (setting [10]), the “relative probability (RP) (acc.to MMP9)” value is listed as 49.41.

In the case of PVAH, the “relative probability (RP) (acc.to MMP2)” value in assay [1] (setting [5]) was 24.82. Besides, the “relative probability (RP)” value in assay [2] (setting [7]) amounted to 24.99. In addition, in assay [2] (setting [8]), the “relative probability (RP) (acc.to MMP9)” value worked out at 24.99.
